From publication PMC10218498, “Exploring BenzylethoxyAryl Urea Scaffolds for Multitarget Immunomodulation Therapies” (International Journal of Molecular Sciences, 2023) come the findings set out here.

As usually defined, the IC50 is the concentration that gives 50% inhibition.

Each structure is given as a SMILES string.

Assay [1] has as its system human microvessel endothelial cells (HMEC-1). As to the kind of experiment: MTT cell proliferation assay, HMEC-1. The assay is classed as cell-based. The note with it: 48 h of treatment. The procedure: (§1) This assay allowed us to establish the corresponding IC50 values (expressed as the concentration, in μM, at which 50% of cell viability is achieved), shown in Table 1.
(§2) In 96-well plates, 5 × 10^3 (HT-29, MCF-7, A549, HMEC-1, Jurkat, and HEK-293) cells per well were incubated with serial dilutions of the tested compounds in a total volume of 100 μL of their respective growth media. The 3-(4,5-dimethylthiazol-2-yl)-2,5-diphenyltetrazolium bromide (MTT; Sigma Chemical Co.) dye reduction assay in 96-well microplates was used. After 2 days of incubation (37 °C, 5% CO2 in a humid atmosphere), 10 μL of MTT (5 mg/mL in phosphate-buffered saline, PBS) was added to each well, and the plate was incubated for a further 3 h (37 °C). After that, the supernatant was discarded and replaced by 100 µL of DMSO to dissolve formazan crystals. The absorbance was then read at 550 nm by spectrophotometry. For all concentrations of compound, cell viability was expressed as the percentage of the ratio between the mean absorbance of treated cells and the mean absorbance of untreated cells. Three independent experiments were performed, and the IC50 values (i.e., concentration half inhibiting cell proliferation) were graphically determined using GraphPad Prism 4 software.

Assay [2] has as its system A-549 (pulmonary adenocarcinoma). As to the kind of experiment: MTT cell proliferation assay, A-549. The assay is classed as cell-based, human. The note with it: Homo sapiens, A549; MTT, 48 h of treatment; read-out: IC50 A-549. The protocol:
(§3) The 3-(4,5-dimethylthiazol-2-yl)-2,5-diphenyltetrazolium bromide (MTT; Sigma Chemical Co.) dye reduction assay in 96-well microplates was used. […] After that, the supernatant was discarded and replaced by 100 µL of DMSO to dissolve formazan crystals. The absorbance was then read at 550 nm by spectrophotometry. For all concentrations of compound, cell viability was expressed as the percentage of the ratio between the mean absorbance of treated cells and the mean absorbance of untreated cells. Three independent experiments were performed, and the IC50 values (i.e., concentration half inhibiting cell proliferation) were graphically determined using GraphPad Prism 4 software.

Assay [3] concerns the target T1, PD-L1 (Homo sapiens, UniProt Q9NZQ7). As to the kind of experiment: PD-L1 relative quantification by flow cytometry in HT-29. Conditions: HT-29, 20 µM, 24 h, relative to DMSO control = 100. Format: cell-based. Details: endogenous in cells; host or cells: HT-29. The procedure:
(§4) To assess the effect of the selected compounds on the biological targets PD-L1 and VEFGR-2, we performed the study on both cancer cell lines HT-29 and A-549 and by flow cytometry technique. […] For these assays, cells were incubated for 24 h in the presence of the corresponding compounds at 20 µM concentration.
(§5) To study the effect of the compounds on every biological target in cancer cell lines, the compounds were used at 20 µM dose.
(§6) For the assay, 10^5 cells per well were incubated for 24 h with the corresponding dose of the tested compound in a total volume of 500 μL of their growth media.
(§7) On the one hand, to detect total PD-L1 and VEGFR-2, after the cell treatments, they were collected and fixed with 4% in PBS paraformaldehyde. After fixation, a treatment with 0.5% in PBS TritonTM X-100 was performed, and finally, cells were stained with FITC Mouse monoclonal Anti-Human VEGFR-2 (ab184903) and Alexa Fluor® 647 Rabbit monoclonal Anti-PD-L1 (ab215251).
(§8) On the other hand, to detect membrane PD-L1 and VEGFR-2, the process was the same, avoiding the treatment with 0.5% in PBS TritonTM X-100 step.

Assay [4] has as its system MCF-7 (Human breast cancer adenocarcinoma). Description: MTT cell proliferation assay, MCF-7. The assay is classed as cell-based. The note with it: Homo sapiens, MCF7; MTT; read-out: IC50 (μM) MCF-7. The protocol: as §3
(In general: Formazan colour is commonly taken as a measure of viable cells.)

Assay [5] deals with T1, PD-L1. As to the kind of experiment: PD-L1 relative quantification by flow cytometry in MCF-7. The note with it: MCF-7, 20 µM, 24 h, control = 100. Details: endogenous in cells; host or cells: MCF-7. The assay is classed as cell-based. The procedure:
In view of the good results obtained for these selected compounds, we decided to extend the study to a third cancer cell line, MCF-7 (Human breast cancer adenocarcinoma). First, we determined the IC50 values of the derivatives and their SI indexes (see Table 4). Then, we determined the effect of the selected compounds on the biological targets, PD-L1 and VEGFR-2, by flow cytometry. […] As usually, the assay was performed at a concentration of 20 µM for 24 h.
as §5, §6, §7, §8

Assay [6] relates to HEK-293 (human embryonic kidney cells). Description: MTT cell proliferation assay, HEK-293. Format: cell-based. Conditions: HEK293, 48 h of treatment. The procedure:
as §1, §2

Assay [7] addresses T1, PD-L1. Description: PD-L1 relative quantification by flow cytometry in A-549. The assay is classed as cell-based. Also on record: endogenous in cells; host or cells: A-549. The note with it: A-549, 20 µM, 24 h, relative to DMSO control = 100. The protocol: as §4, §5, §6, §7, §8
(In general: In flow cytometry, cells or beads pass a laser one at a time.)

For assay [8], the system named is HT-29 (colon adenocarcinoma). As to the kind of experiment: MTT cell proliferation assay, HT-29. Format: cell-based, human. Conditions: Homo sapiens, HT-29; MTT, 48 h of treatment; read-out: IC50 HT-29. The procedure:
as §3

Assay [9] relates to HMEC-1 microtube formation. Description: Tube formation inhibition assay on Matrigel. Format: cell-based, human. Conditions: HMEC-1 on Matrigel, 24 h. The procedure:
The capacity to inhibit the formation of a new vasculature network formed by HMEC-1 was evaluated on compounds 8 and 14 at different concentrations.
Wells of an IBIDI μ-slide angiogenesis (IBIDI, Martinsried, Germany) were coated with 15 μL of Matrigel® (10 mg/mL, BD Biosciences) at 4 °C. After gelatinization at 37 °C for 30 min, HMEC-1 cells were seeded at 2 × 10^4 cells/well in 25 μL of culture medium on top of the Matrigel and were incubated 30 min at 37 °C while are attached. Then, compounds were added and dissolved in 25 μL of culture medium, and after 24 h of incubation at 37 °C, tube formation was evaluated.

T1 sequence (Q9NZQ7 19-290): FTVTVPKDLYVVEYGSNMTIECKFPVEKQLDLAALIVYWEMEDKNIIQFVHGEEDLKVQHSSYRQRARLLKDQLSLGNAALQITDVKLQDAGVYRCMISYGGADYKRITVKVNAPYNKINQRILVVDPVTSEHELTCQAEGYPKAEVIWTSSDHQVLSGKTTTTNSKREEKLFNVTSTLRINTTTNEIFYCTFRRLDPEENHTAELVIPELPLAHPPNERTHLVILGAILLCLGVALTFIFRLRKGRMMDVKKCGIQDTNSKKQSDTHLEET

As for `CNC(=O)c1cc(Oc2ccc(NC(=O)Nc3ccc(Cl)c(C(F)(F)F)c3)cc2)ccn1` [Sorafenib, sorafenib, reference compound], the IC50 came out at 34 ± 3 µM in [1]; 27 ± 2 µM in assay [2]; 14 ± 4 µM in assay [4]; 5 ± 0.7 µM in assay [6]; 17 ± 4 µM in assay [8]. Besides, the “Total PD-L1 (%)” value on PD-L1 [3] stood at 96 ± 49%; at PD-L1 [7], 102 ± 10%. Also, the “% PD-L1 Memb.” value at PD-L1 [5] was 89 ± 2%. In addition, at PD-L1 [5], the “% PD-L1 Total” value is listed as 80 ± 13%. Moreover, the “Minimum Active Conc. (inhibition of microtube formation)” value in assay [9] is recorded as 10 µM.
